Source: ChEMBL document CHEMBL4406839, “Design, synthesis and biological evaluation of a new series of thiazolyl-pyrazolines as dual EGFR and HER2 inhibitors” (Eur J Med Chem, 2019)

Experiments:
[1] = system: A549; assay: Antiproliferative activity aganist human A549 cells incubated for 72 hrs by MTT assay; format: functional, cell-based; conditions: A549, 72 h
[2] = system: MCF7; assay: Antiproliferative activity aganist human MCF7 cells incubated for 72 hrs by MTT assay; format: functional, cell-based; conditions: MCF7, 72 h
[3] = system: A-375; assay: Antiproliferative activity aganist human A375 cells incubated for 72 hrs by MTT assay; format: functional, cell-based; conditions: A-375, 72 h
[4] = system: Jurkat; assay: Antiproliferative activity aganist human Jurkat cells incubated for 72 hrs by MTT assay; format: functional, cell-based
[5] = system: PBMC; assay: Cytotoxicity against human PBMC cells assessed as reduction in cell viability incubated for 72 hrs by MTT assay; format: cell-based
[6] = Selectivity index, ratio of IC50 for human PBMC cells to IC50 for human Jurkat cells; format: toxicity; conditions: PBMC cells and Jurkat cells, read-out: Ratio IC50
[7] = system: A549; assay: Induction of apoptosis in human A549 cells at IC50 incubated for 24 hrs by Annexin V-FITC/ethidium homodimer 3 staining based fluorescence microscopic method relative to control; format: functional
[8] = system: A549; assay: Induction of apoptosis in human A549 cells assessed as increase in apoptosis/necrosis cells at IC50 incubated for 24 hrs by Annexin V-FITC/ethidium homodimer 3 staining based fluorescence microscopic method relative to control; format: functional
[9] = system: A549; assay: Induction of apoptosis in human A549 cells assessed as increase in necrosis cells at IC50 incubated for 24 hrs by Annexin V-FITC/ethidium homodimer 3 staining based fluorescence microscopic method relative to control; format: functional
[10] = system: MCF7; assay: Induction of apoptosis in human MCF7 cells at IC50 incubated for 24 hrs by Annexin V-FITC/ethidium homodimer 3 staining based fluorescence microscopic method relative to control; format: functional
[11] = system: MCF7; assay: Induction of apoptosis in human MCF7 cells assessed as increase in apoptosis/necrosis cells at IC50 incubated for 24 hrs by Annexin V-FITC/ethidium homodimer 3 staining based fluorescence microscopic method relative to control; format: functional
[12] = system: MCF7; assay: Induction of apoptosis in human MCF7 cells assessed as increase in necrosis cells at IC50 incubated for 24 hrs by Annexin V-FITC/ethidium homodimer 3 staining based fluorescence microscopic method relative to control; format: functional
[13] = target: Receptor tyrosine-protein kinase erbB-2 (Homo sapiens, UniProt P04626); assay: Inhibition of recombinant human N-terminal GST-tagged HER2 (676 to end residues) expressed in baculovirus infected Sf9 insect cells using Poly (4:1 Glu, Tyr) peptide as substrate incubated for 1 hr by ADP-Glo assay
[14] = target: Receptor tyrosine-protein kinase erbB-4 (Homo sapiens, UniProt Q15303); assay: Inhibition of recombinant human N-terminal GST-tagged HER4 (682 to 993 residues) expressed in baculovirus infected Sf9 insect cells using Poly (4:1 Glu, Tyr) peptide as substrate incubated for 1 hr by ADP-Glo assay
[15] = target: Insulin-like growth factor 1 receptor (Homo sapiens, UniProt P08069); assay: Inhibition of recombinant human N-terminal His-tagged IGF1R (960 to end residues) expressed in baculovirus infected Sf9 insect cells using IGF1Rtide as substrate incubated for 1 hr by ADP-Glo assay
[16] = target: Insulin receptor (Homo sapiens, UniProt P06213); assay: Inhibition of recombinant human N-terminal GST-tagged INSR (1011 to end residues) expressed in baculovirus infected Sf9 insect cells using Axltide as substrate incubated for 1 hr by ADP-Glo assay
[17] = target: Vascular endothelial growth factor receptor 2 (Homo sapiens, UniProt P35968); assay: Inhibition of recombinant human N-terminal GST-tagged KDR (789 to end residues) expressed in baculovirus infected Sf9 insect cells using Poly (4:1 Glu, Tyr) peptide as substrate incubated for 1 hr by ADP-Glo assay
[18] = target: Platelet-derived growth factor receptor alpha (Homo sapiens, UniProt P16234); assay: Inhibition of recombinant human N-terminal GST-tagged PDGFRalpha (550 to end residues) expressed in baculovirus infected Sf9 insect cells using Poly (4:1 Glu, Tyr) peptide as substrate incubated for 1 hr by ADP-Glo assay
[19] = target: Platelet-derived growth factor receptor beta (Homo sapiens, UniProt P09619); assay: Inhibition of recombinant human N-terminal GST-tagged PDGFRbeta (557 to end residues) expressed in baculovirus infected Sf9 insect cells using Poly (4:1 Glu, Tyr) peptide as substrate incubated for 1 hr by ADP-Glo assay
[20] = target: Epidermal growth factor receptor (Homo sapiens, UniProt P00533); assay: Inhibition of recombinant human N-terminal GST-tagged EGFR (695 to end residues) expressed in baculovirus infected Sf9 insect cells using Poly (4:1 Glu, Tyr) peptide as substrate incubated for 1 hr by ADP-Glo assay

Platelet-derived growth factor receptor beta, sequence (P09619 whole entry): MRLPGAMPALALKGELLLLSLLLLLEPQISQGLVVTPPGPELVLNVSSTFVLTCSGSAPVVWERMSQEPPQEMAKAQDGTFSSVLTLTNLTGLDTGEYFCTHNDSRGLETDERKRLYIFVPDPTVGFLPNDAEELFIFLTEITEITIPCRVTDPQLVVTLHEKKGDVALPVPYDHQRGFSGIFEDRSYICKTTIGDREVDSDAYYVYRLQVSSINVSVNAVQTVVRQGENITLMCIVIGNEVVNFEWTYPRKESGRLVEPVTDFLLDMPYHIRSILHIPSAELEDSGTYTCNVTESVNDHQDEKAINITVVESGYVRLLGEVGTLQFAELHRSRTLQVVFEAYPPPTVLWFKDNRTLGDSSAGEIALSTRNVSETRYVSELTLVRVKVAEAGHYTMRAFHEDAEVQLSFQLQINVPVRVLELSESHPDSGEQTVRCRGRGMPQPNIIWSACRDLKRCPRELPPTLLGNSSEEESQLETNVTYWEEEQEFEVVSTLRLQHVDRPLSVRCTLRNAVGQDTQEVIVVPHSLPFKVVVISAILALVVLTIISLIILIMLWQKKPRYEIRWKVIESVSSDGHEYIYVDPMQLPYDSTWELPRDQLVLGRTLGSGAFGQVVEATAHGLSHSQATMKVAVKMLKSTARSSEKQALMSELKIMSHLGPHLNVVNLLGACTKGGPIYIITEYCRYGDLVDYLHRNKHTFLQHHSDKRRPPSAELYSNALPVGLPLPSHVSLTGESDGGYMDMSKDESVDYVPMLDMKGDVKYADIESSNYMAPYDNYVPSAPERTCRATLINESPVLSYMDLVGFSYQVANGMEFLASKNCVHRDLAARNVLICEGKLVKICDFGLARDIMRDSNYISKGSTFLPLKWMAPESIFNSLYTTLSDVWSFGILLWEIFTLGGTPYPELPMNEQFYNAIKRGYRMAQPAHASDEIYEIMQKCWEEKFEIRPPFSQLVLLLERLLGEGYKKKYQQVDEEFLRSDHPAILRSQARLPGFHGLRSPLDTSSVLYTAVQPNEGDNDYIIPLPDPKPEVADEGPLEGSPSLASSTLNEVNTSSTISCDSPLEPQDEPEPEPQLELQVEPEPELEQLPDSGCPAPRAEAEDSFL
Insulin-like growth factor 1 receptor, sequence (P08069 31-736 limits assumed): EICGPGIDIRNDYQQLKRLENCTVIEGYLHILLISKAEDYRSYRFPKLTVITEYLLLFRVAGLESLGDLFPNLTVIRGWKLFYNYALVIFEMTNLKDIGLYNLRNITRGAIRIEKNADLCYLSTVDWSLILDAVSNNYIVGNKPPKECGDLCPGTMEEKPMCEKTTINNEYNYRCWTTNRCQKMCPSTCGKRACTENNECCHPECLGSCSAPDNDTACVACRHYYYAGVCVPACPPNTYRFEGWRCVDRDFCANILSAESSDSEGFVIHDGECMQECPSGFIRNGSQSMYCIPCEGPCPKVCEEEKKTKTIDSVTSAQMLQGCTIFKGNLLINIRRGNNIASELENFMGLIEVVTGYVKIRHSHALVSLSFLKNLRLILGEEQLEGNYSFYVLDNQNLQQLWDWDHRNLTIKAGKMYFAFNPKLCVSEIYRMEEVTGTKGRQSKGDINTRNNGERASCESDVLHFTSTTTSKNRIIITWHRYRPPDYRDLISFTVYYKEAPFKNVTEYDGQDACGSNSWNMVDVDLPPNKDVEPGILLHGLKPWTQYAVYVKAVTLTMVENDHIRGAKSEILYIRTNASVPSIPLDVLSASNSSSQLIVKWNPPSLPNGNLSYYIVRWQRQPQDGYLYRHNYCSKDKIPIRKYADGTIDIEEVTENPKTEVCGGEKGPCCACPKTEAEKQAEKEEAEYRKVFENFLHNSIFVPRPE
Insulin-like growth factor 1 receptor, sequence (P08069 741-1367 limits assumed): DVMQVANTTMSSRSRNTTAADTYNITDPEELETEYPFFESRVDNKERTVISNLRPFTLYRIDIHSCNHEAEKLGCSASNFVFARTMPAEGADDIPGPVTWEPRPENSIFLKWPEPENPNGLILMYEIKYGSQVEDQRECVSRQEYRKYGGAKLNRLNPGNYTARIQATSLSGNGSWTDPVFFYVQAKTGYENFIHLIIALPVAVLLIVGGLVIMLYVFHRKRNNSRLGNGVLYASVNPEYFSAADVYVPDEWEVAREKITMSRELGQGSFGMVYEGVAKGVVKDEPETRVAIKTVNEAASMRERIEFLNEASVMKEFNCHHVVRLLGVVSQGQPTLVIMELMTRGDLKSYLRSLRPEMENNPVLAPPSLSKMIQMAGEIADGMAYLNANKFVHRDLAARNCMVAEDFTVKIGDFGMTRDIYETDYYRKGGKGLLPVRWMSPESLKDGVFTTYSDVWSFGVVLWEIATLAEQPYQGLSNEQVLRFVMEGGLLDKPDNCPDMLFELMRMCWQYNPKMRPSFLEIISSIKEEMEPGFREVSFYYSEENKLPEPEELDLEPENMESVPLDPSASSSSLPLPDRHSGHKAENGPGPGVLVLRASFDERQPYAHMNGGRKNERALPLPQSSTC
Receptor tyrosine-protein kinase erbB-2, sequence (P04626 whole entry, the tested form may be a part): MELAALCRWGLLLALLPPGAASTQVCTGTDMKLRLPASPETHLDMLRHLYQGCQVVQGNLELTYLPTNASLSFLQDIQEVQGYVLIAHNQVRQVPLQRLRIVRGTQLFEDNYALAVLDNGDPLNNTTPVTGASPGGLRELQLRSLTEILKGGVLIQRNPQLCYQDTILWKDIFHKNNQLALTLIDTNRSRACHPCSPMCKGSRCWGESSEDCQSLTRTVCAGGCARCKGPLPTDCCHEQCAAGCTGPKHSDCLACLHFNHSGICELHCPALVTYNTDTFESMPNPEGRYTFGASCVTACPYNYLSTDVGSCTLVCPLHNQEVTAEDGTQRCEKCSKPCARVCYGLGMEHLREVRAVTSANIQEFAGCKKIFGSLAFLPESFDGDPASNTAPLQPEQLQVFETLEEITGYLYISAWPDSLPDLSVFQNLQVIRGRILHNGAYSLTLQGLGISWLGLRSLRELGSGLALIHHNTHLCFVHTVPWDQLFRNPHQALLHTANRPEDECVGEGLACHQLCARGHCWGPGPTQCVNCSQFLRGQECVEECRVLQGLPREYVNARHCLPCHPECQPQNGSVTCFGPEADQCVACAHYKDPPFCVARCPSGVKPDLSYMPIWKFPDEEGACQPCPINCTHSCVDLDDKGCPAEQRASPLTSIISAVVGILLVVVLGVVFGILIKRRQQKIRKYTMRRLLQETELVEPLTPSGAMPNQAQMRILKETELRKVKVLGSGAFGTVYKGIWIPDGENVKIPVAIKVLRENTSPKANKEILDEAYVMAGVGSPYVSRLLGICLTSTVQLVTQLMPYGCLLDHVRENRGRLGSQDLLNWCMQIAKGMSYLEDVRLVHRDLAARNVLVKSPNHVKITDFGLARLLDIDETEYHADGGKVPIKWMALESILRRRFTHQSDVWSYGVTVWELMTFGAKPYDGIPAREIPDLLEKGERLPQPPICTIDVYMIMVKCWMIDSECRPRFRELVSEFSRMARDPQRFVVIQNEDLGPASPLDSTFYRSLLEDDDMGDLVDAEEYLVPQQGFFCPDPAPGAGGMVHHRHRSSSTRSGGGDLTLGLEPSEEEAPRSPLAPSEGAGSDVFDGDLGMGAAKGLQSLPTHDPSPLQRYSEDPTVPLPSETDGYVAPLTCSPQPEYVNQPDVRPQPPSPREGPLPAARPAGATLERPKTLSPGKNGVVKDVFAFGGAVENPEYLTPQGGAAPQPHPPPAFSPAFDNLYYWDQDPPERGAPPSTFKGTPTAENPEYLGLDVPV
Platelet-derived growth factor receptor alpha, sequence (P16234 whole entry): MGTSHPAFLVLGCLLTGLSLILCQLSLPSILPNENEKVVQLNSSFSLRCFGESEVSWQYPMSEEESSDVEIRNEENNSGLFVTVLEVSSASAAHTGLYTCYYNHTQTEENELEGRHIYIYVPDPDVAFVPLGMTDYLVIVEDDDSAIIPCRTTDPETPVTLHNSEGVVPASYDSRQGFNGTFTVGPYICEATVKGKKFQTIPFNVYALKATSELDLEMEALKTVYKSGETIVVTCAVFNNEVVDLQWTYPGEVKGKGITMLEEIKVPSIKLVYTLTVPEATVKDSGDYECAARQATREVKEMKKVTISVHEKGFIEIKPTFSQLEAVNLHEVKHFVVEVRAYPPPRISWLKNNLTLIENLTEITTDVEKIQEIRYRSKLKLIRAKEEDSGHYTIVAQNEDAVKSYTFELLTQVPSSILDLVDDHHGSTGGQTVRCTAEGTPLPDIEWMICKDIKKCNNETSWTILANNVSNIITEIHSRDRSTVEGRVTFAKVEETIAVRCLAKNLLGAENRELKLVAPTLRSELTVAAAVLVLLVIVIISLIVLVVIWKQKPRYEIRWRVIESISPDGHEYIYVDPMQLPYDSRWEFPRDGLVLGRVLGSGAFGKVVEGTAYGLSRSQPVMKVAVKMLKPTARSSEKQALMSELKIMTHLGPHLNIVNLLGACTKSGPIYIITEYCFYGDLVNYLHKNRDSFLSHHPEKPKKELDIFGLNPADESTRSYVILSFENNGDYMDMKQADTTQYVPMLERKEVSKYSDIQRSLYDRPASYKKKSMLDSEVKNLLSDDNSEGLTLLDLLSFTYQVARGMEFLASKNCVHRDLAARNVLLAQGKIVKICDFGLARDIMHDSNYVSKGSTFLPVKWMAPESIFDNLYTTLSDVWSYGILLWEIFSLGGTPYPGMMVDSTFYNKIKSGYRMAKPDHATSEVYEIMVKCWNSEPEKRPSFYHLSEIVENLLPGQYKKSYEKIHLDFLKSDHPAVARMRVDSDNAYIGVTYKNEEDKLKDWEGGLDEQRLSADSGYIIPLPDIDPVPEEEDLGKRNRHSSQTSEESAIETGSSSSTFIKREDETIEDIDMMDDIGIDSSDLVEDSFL

| Structure (SMILES) | IC50 [1] [µM] | IC50 [2] [µM] | IC50 [3] [µM] | other results |
| --- | --- | --- | --- | --- |
| Clc1ccc(C2CC(c3ccc(N4CCCCC4)cc3)=NN2c2nc(-c3ccc4ccccc4c3)cs2)cc1 (stereo not drawn) | > 100 | > 100 | > 100 | – |
| COc1ccc(-c2csc(N3N=C(c4ccc(N5CCCCC5)cc4)CC3c3ccc(Cl)cc3)n2)cc1 (stereo not drawn) | > 100 | > 100 | > 100 | – |
| CS(=O)(=O)c1ccc(-c2csc(N3N=C(c4ccc(N5CCCCC5)cc4)CC3c3ccc(Cl)cc3)n2)cc1 (stereo not drawn) | > 100 | > 100 | > 100 | – |
| CS(=O)(=O)c1ccc(-c2csc(N3N=C(c4ccc(N5CCOCC5)cc4)CC3c3ccc(Cl)cc3)n2)cc1 (stereo not drawn) | 10.7 | 67.2 | > 100 | – |
| NC(=S)N1N=C(c2ccc(N3CCCCC3)cc2)CC1c1ccc(Cl)cc1 (stereo not drawn) | 33.8 | 22.3 | > 100 | – |
| FC(F)(F)c1ccc(-c2csc(N3N=C(c4ccc(N5CCOCC5)cc4)CC3c3ccc(Cl)cc3)n2)cc1 (stereo not drawn) | 39.3 | > 100 | > 100 | – |
| Fc1ccc(-c2csc(N3N=C(c4ccc(N5CCCCC5)cc4)CC3c3ccc(Cl)cc3)n2)cc1 (stereo not drawn) | 70.2 | 23.1 | 71.4 | – |
| Clc1ccc(C2CC(c3ccc(N4CCOCC4)cc3)=NN2c2nc(-c3ccccc3)cs2)cc1 (stereo not drawn) | 76.5 | 52.1 | > 100 | – |
| Clc1ccc(C2CC(c3ccc(N4CCOCC4)cc3)=NN2c2nc(-c3ccc(Br)cc3)cs2)cc1 (stereo not drawn) | 94.3 | 70.6 | > 100 | – |
| O=[N+]([O-])c1ccc(-c2csc(N3N=C(c4ccc(N5CCOCC5)cc4)CC3c3ccc(Cl)cc3)n2)cc1 (stereo not drawn) | > 100 | > 100 | > 100 | – |
| NC(=S)N1N=C(c2ccc(N3CCOCC3)cc2)CC1c1ccc(Cl)cc1 (stereo not drawn) | > 100 | 37.4 | > 100 | – |
| Clc1ccc(C2CC(c3ccc(N4CCOCC4)cc3)=NN2c2nc(-c3ccc4ccccc4c3)cs2)cc1 (stereo not drawn) | > 100 | > 100 | > 100 | – |
| Clc1ccc(C2CC(c3ccc(N4CCCCC4)cc3)=NN2c2nc(-c3ccc(Br)cc3)cs2)cc1 (stereo not drawn) | 39.7 | > 100 | > 100 | – |
| N#Cc1ccc(-c2csc(N3N=C(c4ccc(N5CCOCC5)cc4)CC3c3ccc(Cl)cc3)n2)cc1 (stereo not drawn) | 10.8 | 8.05 | 53.5 | IC50 [4]: 41 µM; IC50 [5]: 299 µM; selectivity ratio [6]: > 10; Activity [7]: 68%; Activity [8]: 19%; Activity [9]: 13%; Activity [10]: 51%; Activity [11]: 32%; Activity [12]: 27%; IC50 [13]: 2.28 µM; IC50 [14]: 4.68 µM; IC50 [15]: 10.3 µM; IC50 [16]: > 30 µM; IC50 [17]: 10.8 µM; IC50 [18]: > 30 µM; IC50 [19]: > 30 µM |
| Fc1ccc(-c2csc(N3N=C(c4ccc(N5CCOCC5)cc4)CC3c3ccc(Cl)cc3)n2)cc1 (stereo not drawn) | 8.95 | 9.59 | 84.4 | IC50 [4]: 23.4 µM; IC50 [5]: > 300 µM; selectivity ratio [6]: > 10; Activity [7]: 65%; Activity [8]: 23%; Activity [9]: 12%; Activity [10]: 78%; Activity [11]: 14%; Activity [12]: 8%; IC50 [20]: 23.3 µM; IC50 [13]: 6.96 µM; IC50 [14]: 1.5 µM; IC50 [15]: 3.28 µM; IC50 [16]: 9.79 µM; IC50 [17]: 10.5 µM; IC50 [18]: > 30 µM; IC50 [19]: > 30 µM |
| FC(F)(F)c1ccc(-c2csc(N3N=C(c4ccc(N5CCCCC5)cc4)CC3c3ccc(Cl)cc3)n2)cc1 (stereo not drawn) | 42 | 23.7 | 64.2 | – |
| O=[N+]([O-])c1ccc(-c2csc(N3N=C(c4ccc(N5CCCCC5)cc4)CC3c3ccc(Cl)cc3)n2)cc1 (stereo not drawn) | > 100 | > 100 | > 100 | – |
| Cc1ccc(-c2csc(N3N=C(c4ccc(N5CCOCC5)cc4)CC3c3ccc(Cl)cc3)n2)cc1 (stereo not drawn) | > 100 | > 100 | > 100 | – |
| Clc1ccc(-c2csc(N3N=C(c4ccc(N5CCCCC5)cc4)CC3c3ccc(Cl)cc3)n2)cc1 (stereo not drawn) | 46.4 | > 100 | > 100 | – |
| Cc1ccc(-c2csc(N3N=C(c4ccc(N5CCCCC5)cc4)CC3c3ccc(Cl)cc3)n2)cc1 (stereo not drawn) | > 100 | > 100 | > 100 | – |
| N#Cc1ccc(-c2csc(N3N=C(c4ccc(N5CCCCC5)cc4)CC3c3ccc(Cl)cc3)n2)cc1 (stereo not drawn) | 11.2 | 9.76 | 38.7 | IC50 [4]: 29.5 µM; IC50 [5]: 299 µM; selectivity ratio [6]: > 10; Activity [7]: 77%; Activity [8]: 15%; Activity [9]: 8%; Activity [10]: 63%; Activity [11]: 27%; Activity [12]: 10%; IC50 [20]: 4.71 µM; IC50 [13]: > 30 µM; IC50 [14]: 29 µM; IC50 [15]: > 30 µM; IC50 [16]: > 30 µM; IC50 [17]: 25.6 µM; IC50 [18]: > 30 µM; IC50 [19]: > 30 µM |
| Clc1ccc(-c2csc(N3N=C(c4ccc(N5CCOCC5)cc4)CC3c3ccc(Cl)cc3)n2)cc1 (stereo not drawn) | 19 | 14.9 | 75.9 | – |
| Clc1ccc(C2CC(c3ccc(N4CCCCC4)cc3)=NN2c2nc(-c3ccccc3)cs2)cc1 (stereo not drawn) | 64.2 | 28.4 | 65.8 | – |
| COc1ccc(-c2csc(N3N=C(c4ccc(N5CCOCC5)cc4)CC3c3ccc(Cl)cc3)n2)cc1 (stereo not drawn) | > 100 | > 100 | > 100 | – |
| C#Cc1cccc(Nc2ncnc3cc(OCCOC)c(OCCOC)cc23)c1 [ERLOTINIB] | 22.4 | 8.24 | 27.3 | IC50 [4]: 12.1 µM; IC50 [5]: 39.3 µM; Activity [7]: 72%; Activity [8]: 19%; Activity [9]: 9%; Activity [10]: 66%; Activity [11]: 21%; Activity [12]: 13% |
